Reference: PubChem BioAssay AID248 (DTP/NCI, 2004)
Inconclusive results and toxic doses are left out.

Tested on: L1210 leukemia ip in BDF1 mice, survival T/C
Assay: NCI In Vivo Anticancer Drug Screen. Data for tumor model L1210 Leukemia (intraperitoneal) in B6D2F1 (BDF1) mice
Conditions: endpoint: mean survival time, schedule: Q04DX002 (ip), vehicle: saline with Tween-80, higher = longer survival
Procedure, shortened: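 Tumor cells were implanted, animals were treated, and survival was followed. The result divides the treated measurement by the vehicle-control measurement.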

[O-][n+]1ccc(CCc2ccccc2)cc1
T/C (dose: 100.0 mg/kg/injection): 101 % of control
T/C (dose: 200.0 mg/kg/injection): 101 % of control
